Experimental data: patent US6770740B1, “Crosslinked DNA condesate compositions and gene delivery methods” (The Regents of the University of Michigan, priority 1999, dated 2004)
Where a SMILES comes first, the peptide text is derived from it. Where no end group is shown, it is not given here. Side-chain parts run from the residue outwards. vinylsulfone = vinylsulfone linkage of the PEG to the cysteine sulfhydryl (non-reducible, from PEG-vinylsulfone)

Key:
[1] = Serum stability of DNA condensates in DNase I augmented mouse serum; assay type: in vitro ADME; conditions: 50% serum containing 0.12 units of DNase I, 37° C.
Experimental: DNA condensates (100 μL) were combined with 100 μL of DNase I augmented mouse serum (0.12 U of DNase I per 100 μl serum) and 3 μL of 5 M sodium chloride to bring the final salt concentration to 150 mM. Samples were incubated at 37° C. for 3 h while rapidly freezing 20 μL aliquots at time points ranging from 0 to 180 min. Serum samples were processed by adding 3 μL (0.31 U) of proteinase K and then incubated at 37° C. for 30 min to remove endonuclease activity. Sodium chloride was then added (4.6 μL of 5 M) along with trypsin (3 μL containing 7 U) and allowed to digest for 12 h at 37° C. to remove the crosslinked peptide. Samples were applied to a 1% agarose gel containing 0.05% SDS and electrophoresed as described above.

HepG2 cells [2] = assay: Cytotoxicity in cell culture: total protein of cell homogenates 24 h after transfection; assay type: cell-based; conditions: 1-4 mol equivalents of glutaraldehyde corresponding to 1.5-6 μM
Experimental: HepG2 cells (3×10^5) were plated on 6×35 mm wells and grown for 48 h to 40% confluence in MEM supplemented with 10% fetal calf serum (FCS). Crosslinked DNA condensates (10 μg of DNA in 200 μL) were transfected in triplicate by drop wise addition to cells in 2% FCS either with or without 80 μM chloroquine followed by 5 h incubation, after which the media was replaced with 2 mL of MEM containing 10% fetal calf serum and allowed to incubate for an additional 19 h. Wells were sampled for 10 days at 24 h intervals by removing and freezing (−20° C.) the media and replacing it with 2 mL of fresh 10% FCS MEM.
The cytotoxity of both free glutaraldehyde and crosslinked DNA condensates were examined in cell culture. The total protein of cell homogenates harvested 24 h after transfecting cells in the presence of free glutaraldehyde or crosslinked DNA condensates were indistinguishable from control, indicated no toxicity when using 1-4 mol equivalents of glutaraldehyde corresponding to 1.5-6 μM.

[3] = QELS particle size and zeta potential of PEG-peptide DNA condensates and co-condensates, Example 1; assay type: physicochemical; conditions: for zeta potential of DNA condensates: charge ratio 1.8:1; for mean diameter of DNA condensates: charge ratio of 1.8:1 or higher, 50 μg/ml DNA in Hepes
Experimental: The particle size of peptide DNA condensates were analyzed at a DNA concentration of 50 μg/ml in Hepes by quasielastic light scattering (QELS). The particle surface change was determined by zeta potential analysis using a Brookhaven ZetaPlus™ (Brookhaven Instruments).
DNA co-condensates were prepared by add-mixing AlkCWK18 and PEG-VS-CWK18 in ratios ranging from 0 to 100 mol %, and condensing DNA at a charge ratio of 2.3:1 as described above. To establish the mol ratio of peptides bound to DNA, condensates were dialyzed in a fixed volume (0.5 ml) dialyzer for 75 h against water using a 100,000 MWCO membrane. Peptide DNA condensates in the retentate (0.5 ml) were dissociated by adding 50 μl of 5 M sodium chloride in 0.1% TFA. AlkCWK18 and PEG-VS-CWK18 were quantified by injecting 1 nmol of peptide (100 μl) onto analytical RP-HPLC eluted with 0.1% TFA and a gradient of acetonitrile (5 to 65% over 30 min) while detecting tryptophan by fluorescence (λex 280 nm, λem 350 nm). The peak integration areas were used to quantify AlkCWK18 and PEG-VS-CWK18 with reference to standard curves developed for each peptide.

[4] = Solubility of peptide DNA condensates: particle size as a function of DNA concentration; assay type: physicochemical
plasmid DNA = assay: Fluorescent dye (thiazole orange) displacement assay of peptide binding to DNA, Example 1; conditions: corresponding to a charge ratio of 1.8:1
Experimental: Peptide DNA condensates were formed by adding 75 μg of DNA (pCMVL in 750 μl of 5 mM Hepes pH 7.4) to varying amounts of peptide (7.5 to 90 nmol in 750 μl of Hepes) while vortexing, followed by equilibration at RT for 1 h. Peptide binding to DNA was monitored by a fluorescent dye displacement assay (Wadhwa et al. 1997). A 1 μg aliquot of the peptide DNA condensate was diluted to 1 ml in Hepes containing 0.1 μM thiazole orange. The fluorescence of the intercalated dye was measured on an LS50B fluorimeter (Perkin Elmer, UK) in a microcuvette by exciting at 500 nm while monitoring emission at 530 nm.

HepG2 cells [5] = assay: Cell binding of 125I-DNA condensates, Example 1; assay type: cell-based; conditions: 5 h transfection, 10 μg 125I-DNA condensates
Experimental: Iodinated plasmid DNA was prepared with specific activity of 300 nCi per μg of DNA as described previously (Teribesi et al., 1998). Prior to forming DNA condensates, the specific activity of the ^125I DNA was adjusted to 4.5 nCi per μg of DNA by combining with unlabeled plasmid. DNA condensates were prepared using AlkCWK18, PEG-SS-CWK18 or PEG-VS-CWK18 as described above. Peptide ^125I-DNA condensates (10 μg) were used to transfer HepG2 cells for 5 h according to the procedure described above. The radioactive media was removed, cells were washed with phosphate buffered saline, harvested with lysis buffer, and the cell-associated radioactivity was quantified by gamma counting.

HepG2 cells [6] = assay: In vitro luciferase gene expression, Example 1; assay type: cell-based; conditions: HepG2, 24 h post-transfection, 10 μg DNA, 80 μM chloroquine
Experimental: HepG2 cells were plated at 1.5×10^5 cells per 35 mm well and grown to 40-70% confluence in MEM supplemented with 10% fetal calf serum (FCS). Peptide DNA condensates (10 μg of DNA) were added dropwise to triplicate sets of cells in 2% FCS containing 80 μM chloroquine. After 5 h incubation at 37° C., the media was replaced with MEM supplemented with 10% FCS, and luciferase expression was determined at 24 h. Cells were washed twice with ice-cold phosphate buffered saline (calcium and magnesium free) and then treated with 0.5 ml of ice-cold lysis buffer (25 mM Tris hydrochloride pH 7.8, 1 mM EDTA, 8 mM magnesium chloride, 1% Triton X-100, 1 mM DTT) for 10 min. The cell lysate was scraped, transferred to 1.5 ml micro centrifuge tubes, and centrifuged for 7 min at 13,000 g at 4° C. to pellet debris.
Lysis buffer (300 μl), sodium-ATP (4 μl of a 180 mM solution, pH 7, 4° C.) and cell lysate (100 μl, 4° C.) were combined in a test tube, briefly mixed and immediately placed in the luminometer. Luciferase relative light units (RLU) were recorded on a Lumat™ LB 9501 (Berthold Systems, Germany) with 10 sec integration after automatic injection of 100 μl of 0.5 mM D-luciferin (prepared fresh in lysis buffer without DTT). […]

[7] = Particle size and zeta potential of peptide DNA condensates after freeze-drying and rehydration, Example 2; assay type: physicochemical; conditions: no sucrose
Experimental: The concentration of AlkCWK18 and PEG-CWK18 were determined by UV absorbance (Trp, ε280 nm=5,600 M^−1 cm^−1). Peptide DNA condensates were prepared in 5 mM Hepes pH 5 at a peptide/DNA stoichiometry of 0.3 nmol of peptide/μg of DNA. The condensates were formed by adding 450 μL of 100 μg/mL NT-βGal drop wise to 450 μL of 30 nmol/mL AlKCWK18 or PEG-CWK18 while vortexing. Each sample was prepared in triplicate, and after a 30 min equilibration, 20-100 μL of 50 wt/vol % solutions of either glucose, mannitol, galactose, dextran or sucrose were added followed by normalization to 1 mL to give a final sugar concentration of 1-5 wt/vol % and DNA concentration of 50 μg/mL.
The mean particle size of 50 μg/mL AlkCWK18 DNA condensates were determined by quasielastic light scattering (QELS) on a Brookhaven ZetaPlus™. Samples (1 mL) were frozen rapidly in dry ice ethanol in a 1.5 mL microcentrifuge tube and then lyophilized on a Labconco™ freeze dryer for 24 h operated at a constant vacuum of 55×10^−6 mBar while maintained at room temperature (22° C.). The maximal vacuum was achieved within 2 min after applying the sample.
At the highest sucrose concentration of 5 wt/vol %, samples remained frozen throughout freeze-drying but dried to form a glassy solid after 24 h. […] Freeze-dried samples prepared in triplicate were reconstituted in 1 mL of deionized water, allowed to equilibrate for 30 min and then analyzed by QELS as described above. Large peptide DNA condensates were measured by light microscopy with magnification of 100X. The particle size of PEG-peptide DNA condensates were also measured by transmission electron microscopy (TEM) according to a published procedure (Wadhwa et al., 1997).
The relationship between pH and rehydrated peptide DNA condensate particle size was examined in 5 mM Hepes at a pH range of 3-7. The particle size of 50 μg/mL DNA condensates in 5 wt/vol % sucrose was determined by QELS before and after freeze-drying as described above.
The rehydrated particle size of AlkCWK18 or PEG-CWK18 DNA condensates were also examined at a concentration of 0.05-5 mg/mL in 5 mM Hepes pH 5 with (AlkCWK18 DNA) or without (PEG-CWK18 DNA) the addition of 5 wt/vol % sucrose. DNA condensates were freeze-dried and reconstituted to the original concentration. QELS particle size analysis before and after freeze-drying required dilution of an aliquot of the sample to concentration of 50 μg/mL. Freeze-dried 5 mg/mL PEG-CWK18 DNA condensates were also reconstituted in 0.9 wt/vol % sodium chloride and analyzed for particle size.

| Compound | time of stability of DNA before metabolism into oligonucleotides [1] | cytotoxicity (HepG2 cells [2]) | zeta potential of DNA condensates [3] | mean diameter of DNA condensates [3] | mean diameter of DNA condensates ([4]; at 2 mg/ml DNA) | peptide:DNA stoichiometry at the asymptote of the dye displacement titration curve (relative DNA binding affinity) (plasmid DNA) | cell associated 125I-DNA, percent of dose (HepG2 cells [5]) | reduction of spontaneous gene transfer (luciferase expression) relative to AlkCWK18 DNA condensates (HepG2 cells [6]) | mean diameter of DNA condensates ([4]; throughout DNA concentrations 0.05-2 mg/ml) | particle diameter of freeze-dried and rehydrated DNA condensates by TEM ([7]; 5 mg/mL DNA) | DNA concentration up to which particle size was retained on rehydration ([7]; rehydrated in water or normal saline) |
| --- | --- | --- | --- | --- | --- | --- | --- | --- | --- | --- | --- |
| NCCCC[C@H](NC(=O)[C@H](CCCCN)NC(=O)[C@H](CCCCN)NC(=O)[C@H](CCCCN)NC(=O)[C@H](CCCCN)NC(=O)[C@H](CCCCN)NC(=O)[C@H](CCCCN)NC(=O)[C@H](CCCCN)NC(=O)[C@H](CCCCN)NC(=O)[C@H](CCCCN)NC(=O)[C@H](CCCCN)NC(=O)[C@H](CCCCN)NC(=O)[C@H](CCCCN)NC(=O)[C@H](CCCCN)NC(=O)[C@H](CCCCN)NC(=O)[C@H](CCCCN)NC(=O)[C@H](CCCCN)NC(=O)[C@H](CCCCN)NC(=O)[C@H](Cc1c[nH]c2ccccc12)NC(=O)[C@@H](N)CS)C(=O)O [CWK18, Cys-Trp-Lys18] (H-CWKKKKKKKKKKKKKKKKKK-OH; N-terminus and C-terminus assumed) | 60 min |  |  |  |  |  |  |  |  |  |  |
| O=CCCCC=O [glutaraldehyde] |  | no toxicity |  |  |  |  |  |  |  |  |  |
| PEG-SS-CWK18: reducible PEG-peptide from PEG-orthopyridyl-disulfide (5 kDa) and the sulfhydryl of CWK18 (CWKKKKKKKKKKKKKKKKKK; not fully specified (residue 1)) |  |  | +10 mV | 90 nm | 88 nm | 0.3 nmol per μg of DNA | 6.8% | five-fold |  |  |  |
| PEG-VS-CWK18: non-reducible PEG-peptide from PEG-vinylsulfone (5 kDa) and the sulfhydryl of CWK18 (C([vinylsulfone-PEG 5 kDa])WKKKKKKKKKKKKKKKKKK) |  |  | +10 mV | 90 nm |  | 0.3 nmol per μg of DNA | 0.2% | 1000 fold | < 100 nm | less than 100 nm | 5 mg/mL |
